These results are taken from US20250352490A1, “P-SELECTIN TARGETED NANOPARTICLES AND USES THEREOF” (Ramot at Tel-Aviv University Ltd., priority 2023, published 2025).

Read-outs that look alike come from different tables or passages of the source.

For one data set, the system named is MDA-MB-436 cells. Put plainly: Proliferation assay, MDA-MB-436. The data set is classed as cell-based. The following applies: Homo sapiens; MDA-MB-436 (BRCA-mutated), 72 hours. The procedure:
(§1) Human MDA-MB-231 and MDA-MB-436, and murine 4T1 and EMT6 cells were obtained from the ATCC. EMT6, MDA-MB-231 and MDA-MB-436 cells were cultured in DMEM supplemented with 10% FBS, 100 IU/mL penicillin, 100 μg/mL streptomycin, 12.5 U/mL Nystatin, 2 mM L-glutamine. 4T1 cells were cultured in RPMI supplemented with 10% FBS, 100 IU/mL Penicillin, 100 μg/mL Streptomycin, 12.5 U/mL Nystatin, 2 mM L-glutamine, 1 mM sodium pyruvate and 10 mM HEPES Buffer. For MDA-MB-436, MDA-MB-23, 4T1 and EMT6, cells were seeded in 24-well plates (2.5×10^4, 2.5×10^4, 1×10^4, 2×10^3 cells/well, respectively) and incubated for 24 hours. Then, the cultured medium was replaced with a medium containing a serial dilution of talazoparib, talazoparib-loaded NPs or blank NPs (carrier only) for additional 72 hours. Untreated (control) cells were supplemented with fresh medium containing 0.1% DMSO. The cells were counted using a Z1 Coulter Counter (Beckman Coulter). Each treatment was assayed in triplicates, N=3.

Data set [1] relates to PD-L1 expression in EMT6 cells. Description: PD-L1 expression in EMT6 cells by flow cytometry. The data set is classed as cell-based, murine. The procedure:
PD-L1 expression after treatments with talazoparib: EMT6 murine mammary carcinoma cells (obtained from ATCC) were incubated with talazoparib (0.1 nM, 10 nM, and 100 nM) for 24-72 hours and then harvested using FACS buffer (protein levels). 1×10^6 cells were incubated with anti-PD-L1 at 1 μg/ml antibody concentration (Mouse PD-L1/B7-H1 Alexa Fluor® 647-conjugated Antibody; R & D Systems #FAB90781R) or isotype antibody (Rabbit IgG Alexa Fluor®647-conjugated Antibody, R & D Systems #IC1051R) for 1 hour on ice. The cells were washed twice with FACS buffer and the fluorescence intensity was measured by Attune NxT Flow Cytometer and analyzed by Kaluza software. All treatments were compared to the secondary antibody only or to the corresponding isotype control.
PD-L1i blocking activity: In order to assess the PD-L1i small molecule inhibition activity, murine EMT6 cells were seeded in 24-well plate (2×10^4 cells/well). After 24 hours, the medium was replaced with medium containing PD-L1i (SM56; [Acúrcio et al. Journal for ImmunoTherapy of Cancer, 10(7), e004695 (2022)]) for 24-72 hours. The cells were then harvested with FACS buffer, washed and resuspended in FACS buffer. EMT6 cells (1×10^6) were incubated with anti-PD-L1 at 1 μg/ml antibody concentration (Mouse PD-L1/B7-H1 Alexa Fluor®647-conjugated Antibody; R & D Systems #FAB90781R) or isotype antibody (Rabbit IgG Alexa Fluor®647-conjugated Antibody, R & D Systems #IC1051R) for 1 hour on ice. Additionally, to evaluate synergistic activity of PD-L1i with talazoparib, EMT6 cells were treated with the combination of PD-L1i and talazoparib for 48 hours. Later, same antibody and incubation conditions described previously were followed. These experiments were reproduced trice, and the data represent the mean±SD.

For another data set, the system named is PD-L1 RNA in EMT6 cells. Put plainly: PD-L1 mRNA in EMT6 cells by q-Real time PCR. The data set is classed as cell-based, murine. The following applies: 10 nM, 24-72 hours. Here is the method:
q-Real time PCR: Total RNA was isolated from cultured cells using the Direct-zol RNA Miniprep Plus (Zymo Research), according to the manufacturer's instructions. Once isolated, one microgram of RNA was reverse transcribed to cDNA using qScript cDNA synthesis kit (Quantabio, MA, USA). The cDNA was further diluted (1:50 in DNase/RNase-Free Water) for the qPCR. PD-L1 mRNA levels were assessed by SYBR green real-time PCR (StepOne plus; Thermo Fisher Scientific, Waltham, MA, USA) using PerFecTa SYBR Green FastMix ROX (Quanta BioSciences) and the following custom primers: murine PD-L1: forward, 5′-[…]-3′, reverse, 5′-[…]-3′. GAPDH: forward, 5′-ATTCCACCCATGGAATTC-3′, reverse, 5′-[…]-′3.

For data set [2], the system named is mCherry-labeled EMT6 3D spheroids. Put plainly: mCherry-labeled EMT6 3D spheroids sprouting. The data set is classed as cell-based, murine. Particulars: Mus musculus, compared to the control. Here is the method:
Analysis of mCherry-labeled EMT6 3D spheroids sprouting: 3D spheroid of EMT6 cells (2000 cells/spheroid) were prepared in DMEM medium supplemented with 0.24 w/v % methyl cellulose. The cells were deposited in 25 μL droplets into the inner side of a 20 mm dish and incubated for 48 hours at 37° C. when the plate is facing upside down to allow for spheroid formation. The spheroids were then embedded in Matrigel®, seeded in a 96-well plate, and monitored for cell invasion into the Matrigel®. The 3D spheroids were treated with talazoparib (1 nM, 100 nM and 1 μM) and their sprouting in the Matrigel® was evaluated by measuring the % red area with ImageJ software.

The next data set deals with MDA-MB-231 cells. Put plainly: Proliferation assay, MDA-MB-231. It counts as cell-based. Particulars: Homo sapiens; MDA-MB-231 (BRCA wild-type), 72 hours. The procedure:
as §1

In another data set the test system is 4T1 cells. Put plainly: Proliferation assay, 4T1. The data set is classed as cell-based, murine. Particulars: Mus musculus; 4T1 (BRCA wild-type), 72 hours. The procedure:
as §1

The subject of data set [3] is PD-L1 localizations in EMT6 cells. Description: dSTORM imaging of PD-L1 in EMT6 cells. It counts as cell-based, murine. Particulars: increasing concentrations, 48 hours. Here is the method: dSTORM imaging of PD-L1 after exposure of EMT6 cells to talazoparib: EMT6 cells were seeded in Ibidi μ-slide 8 well glass bottom chambered coverslips at a density of 5000 cells per well. After 24 hours incubation, cells were treated with Talazoparib for 48 hours ([…]). After 48 hours cells were washed 1× with PBS and fixed using 3.7% formaldehyde solution for 10 minutes at room temperature. After fixation, cells were washed trice with PBS and incubated with 5% BSA solution overnight at 4° C. […] Between 6 and 10 cells were imaged for each condition. dSTORM images were analyzed with the Nikon NIS elements software (version 5.21.01). dSTORM localizations were detected using Gaussian fitting, with a minimum intensity threshold height of 150 for the 647 nm channel. Molecules detected in 5 consecutive frames were considered as a single blinking event, while molecules detected in more than 5 frames were discarded. […] The resulting x-y coordinates of the detected localizations were imported and run through a custom MATLAB scrip to quantify the localization density per cell. Each cell was manually selected by drawing an ROI around the cell contour (detected in the 488 channel). […]

For a further data set, the system named is EMT6 cells. Put plainly: Proliferation assay, EMT6. It counts as cell-based, murine. The following applies: Mus musculus. Here is the method:
as §1

The test system of another data set is melanoma patients. Particulars: cited from earlier work.
The subject of the next data set is D4M.3A cells. Put plainly: Proliferation assay (cell count after 72 h), D4M.3A. The following applies: Mus musculus, read-out: IC50 values. It counts as cell-based, murine. The procedure:
(§2) Cell culture: Murine primary melanoma […].3A cells were obtained from Dartmouth College, Hanover. […].3A cells were cultured in Advanced DMEM growth media supplemented with 5% FBS, 100 μg/mL streptomycin, 100 IU/mL penicillin, 12.5 IU/mL nystatin, and 1% GlutaMAXTM (Gibco, Waltham, MA, USA). Human metastatic melanoma 131/4-5B1 cells were obtained from University of Toronto, Canada, and were cultured in RPMI 1640 medium supplemented with 10% FBS, 100 μg/mL streptomycin, 100 IU/mL penicillin, 12.5 IU/mL nystatin, and 2 mM L-Glutamine (Biological Industries Ltd, Kibbutz Beit Haemek, Israel). Human primary melanoma A375 cells were obtained from ATCC and were cultured in RPMI 1640 medium supplemented with 10% FBS, 100 μg/mL streptomycin, 100 IU/mL penicillin, 12.5 IU/mL nystatin, and 2 mM L-Glutamine. […] Following 72 hours incubation, the cells were counted using a Z1 Coulter Counter (Beckman Coulter). […] Isobolograns and combination index: The interactions between DBF and TRM were evaluated by constructing isobolograms for different drugs ratios and calculating their combination index (CI).^51 First, the inhibitory concentration (IC) values of treatment with DBF, TRM, and their combinations were calculated from the proliferation assays. […]

The subject of the next data set is pERK and ki67 in tumors. The following applies: 30 mg/kg DBF daily, cited from earlier work.
The conditions of data set [4]: in vivo; cited from earlier work.
A further data set deals with A375 cells. Description: Proliferation assay (cell count after 72 h), A375. The following applies: Homo sapiens, read-out: IC50 values. It counts as cell-based. Here is the method: as §2

Turning to `Cn1ncnc1[C@H]1c2n[nH]c(=O)c3cc(F)cc(c23)N[C@@H]1c1ccc(F)cc1` [talazoparib], the IC50 with MDA-MB-436 cells was 2 nM; with MDA-MB-231 cells it was 411 nM; in the data set with 4T1 cells, 58 nM; in the data set on EMT6 cells (EMT6 (BRCA-mutated), 72 hours), 10 nM; with EMT6 cells (EMT6 proliferation, NPs versus free drug (FIG. 32)) it was 8 nM. In data set [1] (10 nM talazoparib and/or 10 μM PD-L1i, 48 hours), the “PD-L1 expression relative to untreated cells” value was 3 folds. The PD-L1 protein expression result is “time-dependent increase in PD-L1 expression” in data set [1] (10 nM, 24-72 hours) and “induced PD-L1 expression in EMT6 cells in a dose-dependent manner” in data set [1] (increasing concentrations, 72 hours). Further, in the data set with PD-L1 RNA in EMT6 cells, the “PD-L1 RNA level” value was “time-dependent increase in PD-L1 expression”. The compound also yielded an inhibition at 1 µM in data set [2] of 70%. Also, the “PD-L1 localizations and protein density (dSTORM)” value in data set [3] is “increased number of PD-L1 localizations and higher PD-L1 protein density”.

`CC(C)(C)c1nc(-c2cccc(NS(=O)(=O)c3c(F)cccc3F)c2F)c(-c2ccnc(N)n2)s1` [DBF, dabrafenib]: in the data set with melanoma patients, the “Overall survival (OS)” value was 18.7 months and the “Progression-free survival (PFS)” value is reported as 8.8 months. Moreover, in the data set on D4M.3A cells (72 h), the IC50 is 4.9 nM. Besides, in the data set with pERK and ki67 in tumors (6 hours post-final dose), the “Inhibition of pERK in tumors” value was 89% and the “Reduction in ki67 in tumors” value is given as 28%. The “Duration of pERK reduction in tumors post-dose” value with pERK and ki67 in tumors is “up to 18 hours”. Further, the “Steady-state brain to plasma concentration ratio” value in data set [4] is reported as 0.019±0.02. Moreover, the IC50 with A375 cells (A-375, 72 h) is 13.6 nM.

As to `CC(=O)Nc1cccc(-n2c(=O)n(C3CC3)c(=O)c3c(Nc4ccc(I)cc4F)n(C)c(=O)c(C)c32)c1` [TRM, trametinib], the IC50 in the data set on D4M.3A cells (D4M.3A, 72 hours) turned out to be 8.6 nM; with A375 cells (A-375, A375, 72 hours) it was 8.5 nM. The “Steady-state brain to plasma concentration ratio” value in data set [4] is reported as 0.03±0.01.

`O=C1c2ccccc2C(=O)N1CNc1ccc(Oc2ccc(Cl)cc2)cc1` [SM56]: the “Reduction of PD-L1 expression compared to untreated cells” value in data set [1] (10 μM PD-L1i alone, 48 hours) is “about 40%”. In data set [1] (10 μM, 24-72 hours), the “PD-L1 expression over time” value was “reduction in PD-L1 expression in a time-dependent manner”.
